These results are taken from patent US8735411B2, “Macrocyclic benzofused pyrimidine derivatives” (AbbVie Inc., priority 2006, dated 2014).

The target of this experiment is histamine H4 receptor (Homo sapiens, UniProt Q9H3N8). Briefly: In vitro histamine H4 potency in FLIPR (Ca2+ flux, HEK-293 cells coexpressing Gαqi5). It is filed as cell-based. Also on record: expressed in transfected cells. As to conditions: Kb for antagonists and inverse agonists, EC50 for partial agonists. An excerpt:
There are many methods available to show the effectiveness of compounds as histamine H4 receptor ligands. Histamine H4 receptors from mammalian species have been cloned. Methods to clone, express, and assess the potency and functional activity of such cloned genes are well known to those skilled in the art of molecular biology. […] Before testing, cells are loaded with a Ca^+2 sensitive fluorescent dye, in this case Fluo-4. In the case of partial agonist or agonist ligands, addition of compound to the cells leads to the increase in intracellular Ca^+2 which is detected by FLIPR (Fluorescence Imaging Plate Reader; Molecular Devices, Sunnyvale, Calif.) technology. […] The fluorescence intensities measured before addition of the test compound are subtracted from the fluorescence intensities at later time points. Peak response values determined at each concentration of ligand are expressed as a percentage of the response obtained with the full agonist histamine. Concentration versus response data are analyzed to obtain compound potency as Kb values for antagonists and inverse agonists and as EC50 values for partial agonists.
On the technique in general: Calcium assays in cells follow changes in intracellular calcium, usually with a dye or a luminescent sensor.

histamine H4 receptor, sequence (Q9H3N8 whole entry): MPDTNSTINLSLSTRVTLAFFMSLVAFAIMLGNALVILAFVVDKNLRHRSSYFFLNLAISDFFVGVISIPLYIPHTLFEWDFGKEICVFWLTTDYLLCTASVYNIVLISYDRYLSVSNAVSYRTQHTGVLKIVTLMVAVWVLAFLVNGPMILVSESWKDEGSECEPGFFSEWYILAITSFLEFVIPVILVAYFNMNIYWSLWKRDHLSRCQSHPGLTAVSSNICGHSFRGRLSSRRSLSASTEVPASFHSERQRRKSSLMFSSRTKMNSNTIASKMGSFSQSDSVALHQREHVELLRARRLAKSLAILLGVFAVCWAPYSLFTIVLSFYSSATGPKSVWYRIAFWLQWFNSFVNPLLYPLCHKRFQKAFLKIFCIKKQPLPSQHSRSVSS

With “[1-(6,7-Dihydro-5H-benzo[6,7]cyclohepta[1,2-d]pyrimidin-4-yl)-azetidin-3-yl]-amine [Example 125]”, the Potency came to 631 nM.
The compound `COC(=O)N(C)c1ccc2c(c1)-c1nc(N)nc(N3CCNCC3)c1CCC2` [Example 128, (2-Amino-4-piperazin-1-yl-6,7-dihydro-5H-benzo[6,7]cyclohepta[1,2-d]pyrimidin-10-yl)-methyl-carbamic acid methyl ester] yielded a Potency of 562 nM.
With `CN[C@@H]1CCN(c2nc(N)nc3c2[S+]([O-])CCc2ccccc2-3)C1` (stereo partly drawn) [Example 112, 4-((R)-3-Methylamino-pyrrolidin-1-yl)-5-oxo-6,7-dihydro-5-thia-1,3-diaza-dibenzo[a,c]cyclohepten-2-ylamine], the Potency is reported as 2455 nM.
As for `CN1CCC2CN(c3nc(N)nc4c3CCCc3ccccc3-4)CC2C1` (stereo not shown) [Example 85, 4-(5-Methyl-octahydro-pyrrolo[3,4-c]pyridin-2-yl)-6,7-dihydro-5H-benzo[6,7]cyclohepta[1,2-d]pyrimidin-2-ylamine], the Potency is on record as 85 nM.
`Nc1nc2c(c(N3CC4(CCCNC4)C3)n1)CCCc1ccccc1-2` [Example 77, 4-(2,6-Diaza-spiro[3.5]non-2-yl)-6,7-dihydro-5H-benzo[6,7]cyclohepta[1,2-d]pyrimidin-2-ylamine] showed a Potency of 9333 nM.
The compound `Nc1nc2c(c(N3CC[C@H](N)C3)n1)CCCCCc1ccccc1-2` [Example 25, 4-((S)-3-Amino-pyrrolidin-1-yl)-6,7,8,9-tetrahydro-5H-1,3-diaza-dibenzo[a,c]cyclononen-2-ylamine] gave a Potency of 646 nM.
`Nc1nc2c(c(N3CC[C@@H]4CNC[C@@H]43)n1)CCCCc1ccccc1-2` [Example 58, 4-[(3aR,6aR)-hexahydropyrrolo[3,4-b]pyrrol-1(2H)-yl]-5,6,7,8-tetrahydrobenzo[7,8]cycloocta[1,2-d]pyrimidin-2-amine] gave a Potency of 182 nM.
Turning to `Nc1nc2c(c(N3CCNCCNCC3)n1)CCCc1ccccc1-2` [Example 94, 4-[1,4,7]Triazonan-1-yl-6,7-dihydro-5H-benzo[6,7]cyclohepta[1,2-d]pyrimidin-2-ylamine], the Potency was 9.1 nM.
With `Nc1nc2c(c(N3CC4CCCNC4C3)n1)CCCc1cc3c(cc1-2)CCCC3` (stereo not shown) [Example 98, 4-(Octahydro-pyrrolo[3,4-b]pyridin-6-yl)-6,7,9,10,11,12-hexahydro-5H-1,3-diaza-benzo[3,4]cyclohepta[1,2-b]naphthalen-2-ylamine] the figure was 52 nM; with `CN[C@@H]1CCN(c2nc(N)nc3c2CCCCc2ccccc2-3)C1` [Example 54, 4-[(3R)-3-(methylamino)pyrrolidin-1-yl]-5,6,7,8-tetrahydrobenzo[7,8]cycloocta[1,2-d]pyrimidin-2-amine], 32 nM.
The compound `CN[C@@H]1CCN(c2nc(N)nc3c2CCOc2cc(OC)ccc2-3)C1` [Example 50, 9-methoxy-4-[(3R)-3-(methylamino)pyrrolidin-1-yl]-5,6-dihydro[1]benzoxepino[5,4-d]pyrimidin-2-amine] returned a Potency of 56 nM.
As to `Nc1nc2c(c(N3CCC(N4CCCCC4)C3)n1)CCCc1ccccc1-2` (stereo not shown) [Example 18, 4-(3-Piperidin-1-yl-pyrrolidin-1-yl)-6,7-dihydro-5H-benzo[6,7]cyclohepta[1,2-d]pyrimidin-2-ylamine], the Potency came to 25704 nM.
`CNCC(=O)Nc1nc2c(c(N3CCNCC3)n1)CCCc1ccccc1-2` [Example 88, 2-Methylamino-N-(4-piperazin-1-yl-6,7-dihydro-5H-benzo[6,7]cyclohepta[1,2-d]pyrimidin-2-yl)-acetamide]: the Potency turned out to be 209 nM.
Compound `CNC1CN(c2nc(N)nc3c2CCCCCc2ccccc2-3)C1` [Example 26, 4-(3-Methylamino-azetidin-1-yl)-6,7,8,9-tetrahydro-5H-1,3-diaza-dibenzo[a,c]cyclononen-2-ylamine] registered a Potency of 115 nM.
For the compound `Nc1nc2c(c(N3CCNCC3)n1)CCOc1ccccc1-2` [Example 30, 4-Piperazin-1-yl-5,6-dihydro-7-oxa-1,3-diaza-dibenzo[a,c]cyclohepten-2-ylamine], the Potency stood at 166 nM.
The compound `Nc1nc(O[C@H]2CCNC2)c2c(n1)-c1ccccc1CCC2` [Example 73, 4-((S)-Pyrrolidin-3-yloxy)-6,7-dihydro-5H-benzo[6,7]cyclohepta[1,2-d]pyrimidin-2-ylamine] displayed a Potency of 468 nM.
Compound `CN[C@@H]1CCN(c2nc(N)nc3c2CCOc2c(OC)cccc2-3)C1` [Example 53, 8-methoxy-4-[(3R)-3-(methylamino)pyrrolidin-1-yl]-5,6-dihydro[1]benzoxepino[5,4-d]pyrimidin-2-amine] gave a Potency of 100 nM.
`CN1CCN(c2nc(N)nc3c2CCCc2ccccc2-3)CC1` [Example 5, 4-(4-Methyl-piperazin-1-yl)-6,7-dihydro-5H-benzo[6,7]cyclohepta[1,2-d]-pyrimidin-2-ylamine] gave a Potency of 9.8 nM.
Turning to `Nc1nc2c(c(N3CCNCC3)n1)CCSc1ccccc1-2` [Example 36, 4-Piperazin-1-yl-5,6-dihydro-7-thia-1,3-diaza-dibenzo[a,c]cyclohepten-2-ylamine], the Potency is 39 nM.
On to `Nc1nc2c(c(N3CC4CCNCC4C3)n1)CCCc1ccccc1-2` (stereo not shown) [Example 79, 4-(Octahydro-pyrrolo[3,4-c]pyridin-2-yl)-6,7-dihydro-5H-benzo[6,7]cyclohepta[1,2-d]pyrimidin-2-ylamine], for which the Potency is reported as 89 nM.
Take `Nc1nc2c(c(N3CCC4(CCCCN4)CC3)n1)CCCc1ccccc1-2` [Example 75, 4-(1,9-Diaza-spiro[5.5]undec-9-yl)-6,7-dihydro-5H-benzo[6,7]cyclohepta[1,2-d]pyrimidin-2-ylamine]: the Potency is 4898 nM.
For `CN[C@@H]1CCN(c2nc(N)nc3c2CCCc2ccc(F)cc2-3)C1` [Example 11, 10-Fluoro-4-(3-(R)-methylamino-pyrrolidin-1-yl)-6,7-dihydro-5H-benzo[6,7]cyclohepta[1,2-d]pyrimidin-2-ylamine], the Potency worked out at 7.8 nM.
In turn, `Nc1nc2c(c(N3CC4CCCNC4C3)n1)SCCc1ccccc1-2` (stereo not shown) [Example 110, 4-(Octahydro-pyrrolo[3,4-b]pyridin-6-yl)-6,7-dihydro-5-thia-1,3-diaza-dibenzo[a,c]cyclohepten-2-ylamine] returned a Potency of 54 nM.
`CN[C@@H]1CCN(c2nc(N)nc3c2CC(C)c2ccccc2-3)C1` (stereo partly drawn) [Example 1, 6-Methyl-4-[(3R)-3-methylamino-pyrrolidin-1-yl]-5,6-dihydro-benzo[h]quinazolin-2-ylamine] came in with a Potency of 18 nM.
Take `CN[C@@H]1CCN(c2nc(N)nc3c2CCSc2ccccc2-3)C1` [Example 34, 4-(3-(R)-Methylamino-pyrrolidin-1-yl)-5,6-dihydro-7-thia-1,3-diaza-dibenzo[a,c]cyclohepten-2-ylamine]: the Potency is given as 4.2 nM.
The compound `CNc1ccc2c(c1)-c1nc(N)nc(N3CCNCC3)c1CCC2` [Example 129, 10-N-Methyl-4-piperazin-1-yl-6,7-dihydro-5H-benzo[6,7]cyclohepta[1,2-d]pyrimidine-2,10-diamine] returned a Potency of 1096 nM.
Compound `CNC1CN(c2nc(N)nc3c2CCOc2ccccc2-3)C1` [Example 32, 4-(3-Methylamino-azetidin-1-yl)-5,6-dihydro-7-oxa-1,3-diaza-dibenzo[a,c]cyclohepten-2-ylamine] showed a Potency of 8.7 nM.
With `CN[C@@H]1CCN(c2ncnc3c2CCCc2ccccc2-3)C1` [Example 124, 4-(3-(R)-Methylamino-pyrrolidin-1-yl)-6,7-dihydro-5H-benzo[6,7]cyclohepta[1,2-d]pyrimidine] the figure was 1413 nM.
With `Nc1nc2c(c(N3C[C@@H]4CN[C@@H]4C3)n1)CCCc1ccccc1-2` [Example 120, (1S,5S)-4-(3,6-Diaza-bicyclo[3.2.0]hept-3-yl)-6,7-dihydro-5H-benzo[6,7]cyclohepta[1,2-d]pyrimidin-2-ylamine] the figure was 603 nM; with `CNc1nc2c(c(N3CCNCC3)n1)CCCc1ccccc1-2` [Example 123, Methyl-(4-piperazin-1-yl-6,7-dihydro-5H-benzo[6,7]cyclohepta[1,2-d]pyrimidin-2-yl)-amine], 1622 nM.
`NCCCC(=O)Nc1nc2c(c(N3CCNCC3)n1)CCCc1ccccc1-2` [Example 91, 4-Amino-N-(4-piperazin-1-yl-6,7-dihydro-5H-benzo[6,7]cyclohepta[1,2-d]pyrimidin-2-yl)-butyramide]: the Potency worked out at 550 nM.
The compound `CN1CC[C@@H](Oc2nc(N)nc3c2CCCc2ccccc2-3)C1` [Example 70, 4-((R)-1-Methyl-pyrrolidin-3-yloxy)-6,7-dihydro-5H-benzo[6,7]cyclohepta[1,2-d]pyrimidin-2-ylamine] displayed a Potency of 37 nM.
On to `CN[C@@H]1CCN(c2nc(N)nc3c2CCOc2cc(C)ccc2-3)C1` [Example 49, 9-methyl-4-[(3R)-3-(methylamino)pyrrolidin-1-yl]-5,6-dihydro[1]benzoxepino[5,4-d]pyrimidin-2-amine], for which the Potency is 39 nM.
With `Nc1nc2c(c(N3C[C@@H]4C[C@H]3CN4)n1)CCCCCc1ccccc1-2` [Example 28, 4-((1S,4S)-2,5-Diaza-bicyclo[2.2.1]hept-2-yl)-6,7,8,9-tetrahydro-5H-1,3-diaza-dibenzo[a,c]cyclononen-2-ylamine], the Potency is 15849 nM.
